The source of these data is patent US20170204102A1, “AGRICULTURAL AGENT CONTAINING 2,5-DIKETOPIPERAZINE DERIVATIVE AS ACTIVE INGREDIENT” (NAPRO BIOTEC INC., priority 2010, published 2017).

Read-outs that look alike come from different tables or passages of the source.

As a reminder, the melting point is the temperature of the solid-liquid transition.

Series [1] relates to Pectobacterium carotovorum SCC1. Nature of the series: Inhibition of soft rot lesion in tobacco leaf. It counts as in vivo.
Series [2] has the same test system. Nature of the series: Inhibition of soft rot lesion in cucumber leaf. Format: in vivo.
The test system of the next series is cucumber leaf. Nature of the series: Promotion of growth of cucumber leaf. As to conditions: for Width of leaf: relative values with respect to the control group (89.9 mm) = 100.0; for response vs control in vivo at 1 ppm / response vs control in vivo at 10 ppm / response vs control in vivo at 100 ppm: Cucumis sativus, read-out: Width of leaf.
A further series deals with Colletotrichum acutatum. Nature of the series: Inhibition of anthracnose in red pepper fruit after soil drench. Particulars: for Appearance of anthracnose: control 50.
For series [3], the system named is Colletotrichum orbiculare. It counts as in vivo. Particulars: cucumber; for Number of anthractic lesions in first leaf: control 12.5; for Number of anthractic lesions in second leaf: control 96.8.
[4] abbreviates: 100 ppm, Table 5, control 73.75.

As for `CC(C)C1NC(=O)CNC1=O` (stereo not drawn) [Compound No. 4, 3-isopropyl-2,5-diketopiperazine], the Area of lesion in series [1] (1 ppm, Table 3, control 87.5) is 17.5%; in series [1] (10 ppm, Table 3, control 87.5), 52.5%; in series [1] (100 ppm, Table 3, control 87.5) it was 52.5%; in series [2] (1 ppm, Table 6, control 100), 37.5%; in series [2] (10 ppm, Table 6, control 100) it was 45%; in series [2] (100 ppm, Table 6, control 100), 87.5%.

For `CC(O)C1NC(=O)C2CCCN2C1=O` (stereo not drawn) [Compound No. 66], the Area of lesion in series [1] (1 ppm, Table 5, control 73.75) was determined as 35%; in series [1] (10 ppm, Table 5, control 73.75), 37.5%; in series [1] (setting [4]), 37.5%.

With `CC(C)CC1NC(=O)C(CO)NC1=O` (stereo not drawn) [Compound No. 1, 3-hydroxymethyl-6-(2-methylpropyl)-2,5-diketopiperazine], the Area of lesion in series [1] (1 ppm, Table 3, control 87.5) is listed as 10%; in series [1] (10 ppm, Table 3, control 87.5) it was 32.5%; in series [1] (100 ppm, Table 3, control 87.5), 50%; in series [2] (1 ppm, Table 6, control 100), 95%; in series [2] (10 ppm, Table 6, control 100), 77.5%; in series [2] (100 ppm, Table 6, control 100), 50%.

For `O=C1C2CCCN2C(=O)C2CCCN12` (stereo not drawn) [Compound No. 31, octahydropyrrolo[1,2-a:1′,2′-d]pyrazin-5,10-dione], the Width of leaf in the series with cucumber leaf (1.0 ppm) is listed as 104.2; with cucumber leaf (10 ppm) it was 103.2; in the series with cucumber leaf (100 ppm), 102.8. Besides, the Area of lesion in series [1] (1 ppm, Table 4, control 100) is given as 47.5%; in series [1] (10 ppm, Table 4, control 100), 60%; in series [1] (100 ppm, Table 4, control 100) it was 17.5%; in series [2] (1 ppm, Table 7, control 100) it was 95%; in series [2] (10 ppm, Table 7, control 100), 78%; in series [2] (100 ppm, Table 7, control 100) it was 80%. Further, the Appearance of anthracnose amounted to 25% with Colletotrichum acutatum (1 ppm), 25% in the series with Colletotrichum acutatum (10 ppm) and 0% in the series with Colletotrichum acutatum (100 ppm).

With `CC(O)C1NC(=O)C2CCCN2C1=O` (stereo not drawn) [Compound No. 33, 3-(1-hydroxyethyl)hexahydropyrrolo[1,2-a]pyrazin-1,4-dione], in the series with cucumber leaf, the response vs control in vivo at 1 ppm turned out to be 109%, the response vs control in vivo at 10 ppm worked out at 117% and the response vs control in vivo at 100 ppm was determined as 110%.

“3-(indol-3-ylmethyl)hexahydropyrrolo[1,2-a]pyrazin-1,4-dione [Compound No. 30]”: the “Number of anthractic lesions in first leaf” value is recorded as 2.5 in series [3] (0.1 ppm), 3.0 in series [3] (1 ppm), 7.0 in series [3] (10 ppm) and 7.8 in series [3] (100 ppm). Moreover, the “Number of anthractic lesions in second leaf” value in series [3] (0.1 ppm) was 66.8; in series [3] (1 ppm), 39.0; in series [3] (10 ppm) it was 35.3; in series [3] (100 ppm), 55.3. In addition, the Width of leaf with cucumber leaf (1.0 ppm) amounted to 101.6; in the series with cucumber leaf (10 ppm), 123.5; with cucumber leaf (100 ppm), 119.5. Further, the Area of lesion turned out to be 2.5% in series [1] (1 ppm, Table 4, control 100); 7.5% in series [1] (10 ppm, Table 4, control 100); 2.5% in series [1] (100 ppm, Table 4, control 100); 88% in series [2] (1 ppm, Table 7, control 100); 75% in series [2] (10 ppm, Table 7, control 100); 70% in series [2] (100 ppm, Table 7, control 100). Besides, the Appearance of anthracnose with Colletotrichum acutatum (1 ppm), with Colletotrichum acutatum (10 ppm) and with Colletotrichum acutatum (100 ppm) was 0% throughout. In addition, in the series with Colletotrichum acutatum (Table 10, FIG. 9), the “Appearance of anthracnose / anthractic lesion (in words)” value is given as “hardly observed”.

As to `O=C1NC(Cc2ccccc2)C(=O)N2CCCC12` (stereo not drawn) [Compound No. 24, 3-benzylhexahydropyrrolo[1,2-a]pyrazin-1,4-dione], in the series with cucumber leaf, the response vs control in vivo at 1 ppm was determined as 98.2%, the response vs control in vivo at 10 ppm turned out to be 104% and the response vs control in vivo at 100 ppm is 102%.

Consider `CCC(C)C1NC(=O)C2CCCN2C1=O` (stereo not drawn) [Compound No. 60], for which the Area of lesion came out at 33.7% in series [1] (1 ppm, Table 5, control 73.75); 25% in series [1] (10 ppm, Table 5, control 73.75); 7.5% in series [1] (setting [4]); 50% in series [2] (1 ppm, Table 8, control 100); 60% in series [2] (10 ppm, Table 8, control 100); 27.5% in series [2] (100 ppm, Table 8, control 100).

Regarding `O=C1N[C@H](Cc2ccc(O)cc2)C(=O)N2CCC[C@H]12` [Compound No. 64], the Area of lesion in series [1] (1 ppm, Table 5, control 73.75) is 55%; in series [1] (10 ppm, Table 5, control 73.75) it was 37.5%; in series [1] (setting [4]) it was 60%; in series [2] (1 ppm, Table 8, control 100), 50%; in series [2] (10 ppm, Table 8, control 100), 55%; in series [2] (100 ppm, Table 8, control 100) it was 65%.

`O=C1N[C@H](Cc2ccccc2)C(=O)N2CCC[C@@H]12` [Compound No. 58]: the Area of lesion in series [1] (1 ppm, Table 5, control 73.75) turned out to be 35%; in series [1] (10 ppm, Table 5, control 73.75), 25%; in series [1] (setting [4]), 7.5%; in series [2] (1 ppm, Table 8, control 100), 75%; in series [2] (10 ppm, Table 8, control 100), 57.5%; in series [2] (100 ppm, Table 8, control 100), 80%.

Turning to `CC1NC(=O)C(Cc2ccc(O)cc2)NC1=O` (stereo not drawn) [Compound No. 10, 3-methyl-6-(4-hydroxybenzyl)-2,5-diketopiperazine], the melting point is 276 to 280 °C (dec.).

Turning to `O=C1NC(Cc2ccc(O)cc2)C(=O)N2CCCC12` (stereo not drawn) [Compound No. 23, 3-(4-hydroxybenzyl)hexahydropyrrolo[1,2-a]pyrazin-1,4-dione], in the series with cucumber leaf, the response vs control in vivo at 1 ppm came to 97.8%, the response vs control in vivo at 10 ppm came to 114% and the response vs control in vivo at 100 ppm is 110%.

Turning to `CC(C)C[C@H]1NC(=O)[C@H]2CCCN2C1=O` [Compound No. 61], the Area of lesion in series [1] (1 ppm, Table 5, control 73.75) was 10%; in series [1] (10 ppm, Table 5, control 73.75), 10%; in series [1] (setting [4]), 17.5%; in series [2] (1 ppm, Table 8, control 100), 5%; in series [2] (10 ppm, Table 8, control 100), 70%; in series [2] (100 ppm, Table 8, control 100) it was 75%.

`CCCC1NC(=O)C(C)NC1=O` (stereo not drawn) [Compound No. 9, 3-methyl-6-(2-methylethyl)-2,5-diketopiperazine]: the melting point was 220 to 222 °C (dec.).

`CC(C)CC1NC(=O)C2CCCN2C1=O` (stereo not drawn) [Compound No. 27, 3-(2-methylpropyl)hexahydropyrrolo[1,2-a]pyrazin-1,4-dione]: in the series on cucumber leaf, the response vs control in vivo at 1 ppm was 111%, the response vs control in vivo at 10 ppm was found to be 135% and the response vs control in vivo at 100 ppm was determined as 129%.

Regarding `O=C1CNC(=O)C(Cc2c[nH]c3ccccc23)N1` (stereo not drawn) [Compound No. 5, 3-(indol-3-ylmethyl)-2,5-diketopiperazine], the melting point is 280 to 284 °C (dec.). This compound registered an Area of lesion in series [1] (1 ppm, Table 3, control 87.5) of 2.5%. This compound had an Area of lesion in series [1] (10 ppm, Table 3, control 87.5) of 5%. The compound also returned an Area of lesion in series [1] (100 ppm, Table 3, control 87.5) of 40%.

Consider `CSCC[C@H]1NC(=O)[C@@H]2CCCN2C1=O` [Compound No. 57], for which the Area of lesion came to 10% in series [1] (1 ppm, Table 5, control 73.75); 10% in series [1] (10 ppm, Table 5, control 73.75); 12.5% in series [1] (setting [4]); 70% in series [2] (1 ppm, Table 8, control 100); 72.5% in series [2] (10 ppm, Table 8, control 100); 60% in series [2] (100 ppm, Table 8, control 100).

For `O=C1N[C@H](Cc2ccccc2)C(=O)N2CCC[C@H]12` [Compound No. 63], the Area of lesion stood at 15% in series [1] (1 ppm, Table 5, control 73.75); 22.5% in series [1] (10 ppm, Table 5, control 73.75); 65% in series [1] (setting [4]); 82.5% in series [2] (1 ppm, Table 8, control 100); 42.5% in series [2] (10 ppm, Table 8, control 100); 50% in series [2] (100 ppm, Table 8, control 100).

As to `CCC(C)C1NC(=O)C2CCCN2C1=O` (stereo not drawn) [Compound No. 67], the Area of lesion came to 25% in series [1] (1 ppm, Table 5, control 73.75); 35% in series [1] (10 ppm, Table 5, control 73.75); 40% in series [1] (setting [4]).

In the case of `O=C1NC(CO)C(=O)N2CCCC12` (stereo not drawn) [Compound No. 32, 3-hydroxymethylhexahydropyrrolo[1,2-a]pyrazin-1,4-dione], in the series on cucumber leaf, the response vs control in vivo at 1 ppm is 98.7%, the response vs control in vivo at 10 ppm worked out at 124% and the response vs control in vivo at 100 ppm was found to be 112%.

On to `CSCC[C@H]1NC(=O)[C@H]2CCCN2C1=O` [Compound No. 65], for which the Area of lesion in series [1] (1 ppm, Table 5, control 73.75) was 60%; in series [1] (10 ppm, Table 5, control 73.75), 57.5%; in series [1] (setting [4]) it was 52.5%.

`CC(C)CC1NC(=O)C(C(C)O)NC1=O` (stereo not drawn) [Compound No. 3, 3-(1-hydroxyethyl)-6-(2-methylpropyl)-2,5-diketopiperazine]: the Area of lesion in series [1] (1 ppm, Table 3, control 87.5) came to 20%; in series [1] (10 ppm, Table 3, control 87.5), 10%; in series [1] (100 ppm, Table 3, control 87.5), 0%; in series [2] (1 ppm, Table 6, control 100), 45%; in series [2] (10 ppm, Table 6, control 100), 45%; in series [2] (100 ppm, Table 6, control 100), 42.5%.

With `NC(=O)CC1NC(=O)C2CCCN2C1=O` (stereo not drawn) [Compound No. 68, 3-carbamoylmethylhexahydropyrrolo[1,2-a]pyrazin-1,4-dione], the Area of lesion in series [1] (1 ppm, Table 5, control 73.75) came to 10%; in series [1] (10 ppm, Table 5, control 73.75), 7.5%; in series [1] (setting [4]), 30%.

Take `NC(=O)CC[C@H]1NC(=O)[C@@H]2CCCN2C1=O` [Compound No. 59]: the Area of lesion in series [1] (1 ppm, Table 5, control 73.75) is 12.5%; in series [1] (10 ppm, Table 5, control 73.75), 32.5%; in series [1] (setting [4]) it was 47.5%; in series [2] (1 ppm, Table 8, control 100), 30%; in series [2] (10 ppm, Table 8, control 100) it was 32.5%; in series [2] (100 ppm, Table 8, control 100), 80%.

Take `CC(O)C1NC(=O)C2CCCN2C1=O` (stereo not drawn) [Compound No. 56]: the Area of lesion in series [1] (1 ppm, Table 5, control 73.75) is 7.5%; in series [1] (10 ppm, Table 5, control 73.75), 10%; in series [1] (setting [4]) it was 10%; in series [2] (1 ppm, Table 8, control 100), 5%; in series [2] (10 ppm, Table 8, control 100) it was 80%; in series [2] (100 ppm, Table 8, control 100), 70%.
